# According to ChEMBL document CHEMBL1158742, “Production of 8-demethylgeldanamycin and 4,5-epoxy-8-demethylgeldanamycin from a recombinant strain of Streptomyces hygroscopicus” (J Nat Prod, 2005):
# Test system: SK-BR-3
# Experiment: Cytotoxicity against human SKBR3 cells after 72 hrs by celltiter-Glo assay
# Format: functional, cell-based
# Details: SK-BR-3, 72 h
row,SMILES,IC50
1,COC1=C2C[C@@H](C)C[C@H](OC)[C@H](O)[C@@H](C)/C=C/[C@H](OC(N)=O)[C@@H](OC)[C@@H]3O[C@@H]3/C=C(\C)C(=O)NC(=CC1=O)C2=O,0.28 µM
2,C=CCNC1=C2C[C@@H](C)C[C@H](OC)[C@H](O)[C@@H](C)/C=C(\C)[C@H](OC(N)=O)[C@@H](OC)/C=C\C=C(/C)C(=O)NC(=CC1=O)C2=O [TANESPIMYCIN],0.027 µM
3,COC1=C2C[C@@H](C)C[C@H](OC)[C@H](O)[C@@H](C)/C=C/[C@H](OC(N)=O)[C@@H](OC)/C=C\C=C(/C)C(=O)NC(=CC1=O)C2=O,0.481 µM
